Data taken from ChEMBL document CHEMBL4257443, “The discovery of a potent Nav1.3 inhibitor with good oral pharmacokinetics” (Medchemcomm, 2017).
Values belong to the compound of their own block, whether it stands above or below them.

Key:
[1] = target: Sodium channel protein type 3 subunit alpha (Homo sapiens, UniProt Q9NY46); assay: Inhibition of human NaV1.3 expressed in HEK cells by electrophysiological method; format: cell-based
[2] = Lipophilicity, log D of the compound; format: physicochemical; conditions: octanol/water
[3] = Dissociation constant, pKa of compound; format: physicochemical
[4] = target: Sodium channel protein type 1 subunit alpha (Homo sapiens, UniProt P35498); assay: Inhibition of human NaV1.1
[5] = target: Sodium channel protein type 2 subunit alpha (Homo sapiens, UniProt Q99250); assay: Inhibition of human NaV1.2
Sequence of Sodium channel protein type 2 subunit alpha (Q99250 whole entry): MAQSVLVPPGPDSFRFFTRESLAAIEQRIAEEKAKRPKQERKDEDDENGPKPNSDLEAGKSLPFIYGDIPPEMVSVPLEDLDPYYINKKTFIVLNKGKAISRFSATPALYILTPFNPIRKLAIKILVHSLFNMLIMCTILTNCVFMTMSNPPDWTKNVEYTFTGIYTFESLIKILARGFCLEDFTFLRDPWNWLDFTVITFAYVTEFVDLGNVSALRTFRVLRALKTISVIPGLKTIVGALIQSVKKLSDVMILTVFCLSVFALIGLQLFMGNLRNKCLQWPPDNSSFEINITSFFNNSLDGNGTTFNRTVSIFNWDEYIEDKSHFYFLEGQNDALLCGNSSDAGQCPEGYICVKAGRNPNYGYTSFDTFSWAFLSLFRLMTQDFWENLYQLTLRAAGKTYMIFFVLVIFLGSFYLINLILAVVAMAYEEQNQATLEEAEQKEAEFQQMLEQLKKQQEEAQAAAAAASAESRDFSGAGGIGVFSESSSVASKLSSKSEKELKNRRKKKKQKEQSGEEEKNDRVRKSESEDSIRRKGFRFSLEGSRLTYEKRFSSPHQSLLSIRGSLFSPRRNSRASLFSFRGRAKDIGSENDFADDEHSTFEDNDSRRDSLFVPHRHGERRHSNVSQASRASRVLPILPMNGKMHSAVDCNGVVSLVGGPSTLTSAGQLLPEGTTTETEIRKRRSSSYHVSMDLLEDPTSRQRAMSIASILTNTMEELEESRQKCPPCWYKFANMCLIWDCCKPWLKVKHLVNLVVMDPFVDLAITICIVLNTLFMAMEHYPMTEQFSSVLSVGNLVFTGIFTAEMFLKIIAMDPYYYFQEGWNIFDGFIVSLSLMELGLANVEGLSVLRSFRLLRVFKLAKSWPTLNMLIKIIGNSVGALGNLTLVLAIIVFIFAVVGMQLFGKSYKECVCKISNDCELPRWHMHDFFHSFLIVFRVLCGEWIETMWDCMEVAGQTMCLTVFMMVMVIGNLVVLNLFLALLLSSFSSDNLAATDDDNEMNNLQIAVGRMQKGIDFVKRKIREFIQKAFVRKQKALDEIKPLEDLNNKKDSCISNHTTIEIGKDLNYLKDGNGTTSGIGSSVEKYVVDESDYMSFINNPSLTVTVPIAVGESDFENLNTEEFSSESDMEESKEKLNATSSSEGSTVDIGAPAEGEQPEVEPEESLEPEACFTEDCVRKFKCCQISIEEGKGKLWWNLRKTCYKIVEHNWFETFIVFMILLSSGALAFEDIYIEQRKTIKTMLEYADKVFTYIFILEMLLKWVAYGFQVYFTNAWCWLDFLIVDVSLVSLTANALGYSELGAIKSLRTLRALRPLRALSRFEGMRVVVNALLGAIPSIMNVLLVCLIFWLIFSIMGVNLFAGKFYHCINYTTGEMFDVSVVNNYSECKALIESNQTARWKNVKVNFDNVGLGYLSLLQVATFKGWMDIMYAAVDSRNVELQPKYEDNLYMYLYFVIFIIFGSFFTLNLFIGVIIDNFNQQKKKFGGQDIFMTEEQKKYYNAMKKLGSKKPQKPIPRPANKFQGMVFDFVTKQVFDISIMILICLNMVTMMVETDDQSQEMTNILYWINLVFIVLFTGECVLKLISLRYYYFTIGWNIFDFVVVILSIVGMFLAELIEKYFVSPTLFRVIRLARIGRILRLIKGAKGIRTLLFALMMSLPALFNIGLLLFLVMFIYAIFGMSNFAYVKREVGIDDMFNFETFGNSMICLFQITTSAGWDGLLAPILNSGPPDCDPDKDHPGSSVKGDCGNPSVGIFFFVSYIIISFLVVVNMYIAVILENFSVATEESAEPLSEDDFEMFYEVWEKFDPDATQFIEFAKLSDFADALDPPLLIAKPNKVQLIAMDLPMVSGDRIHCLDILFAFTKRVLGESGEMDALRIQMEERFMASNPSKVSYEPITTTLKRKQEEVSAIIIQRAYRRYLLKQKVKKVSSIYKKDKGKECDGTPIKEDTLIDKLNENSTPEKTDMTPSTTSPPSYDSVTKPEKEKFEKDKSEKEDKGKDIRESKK

[6] = target: Sodium channel protein type 9 subunit alpha (Homo sapiens, UniProt Q15858); assay: Inhibition of human NaV1.7
[7] = target: Sodium channel protein type 10 subunit alpha (Homo sapiens, UniProt Q9Y5Y9); assay: Inhibition of human NaV1.8
[8] = Clearance in human liver microsomes; format: ADME, microsome; conditions: read-out: CLH
[9] = target: CYP2C9 (Homo sapiens, UniProt P11712); assay: Inhibition of CYP2C9 (unknown origin) at 3 uM by high throughput assay relative to control; format: ADME
Sequence of CYP2C9 (P11712 whole entry): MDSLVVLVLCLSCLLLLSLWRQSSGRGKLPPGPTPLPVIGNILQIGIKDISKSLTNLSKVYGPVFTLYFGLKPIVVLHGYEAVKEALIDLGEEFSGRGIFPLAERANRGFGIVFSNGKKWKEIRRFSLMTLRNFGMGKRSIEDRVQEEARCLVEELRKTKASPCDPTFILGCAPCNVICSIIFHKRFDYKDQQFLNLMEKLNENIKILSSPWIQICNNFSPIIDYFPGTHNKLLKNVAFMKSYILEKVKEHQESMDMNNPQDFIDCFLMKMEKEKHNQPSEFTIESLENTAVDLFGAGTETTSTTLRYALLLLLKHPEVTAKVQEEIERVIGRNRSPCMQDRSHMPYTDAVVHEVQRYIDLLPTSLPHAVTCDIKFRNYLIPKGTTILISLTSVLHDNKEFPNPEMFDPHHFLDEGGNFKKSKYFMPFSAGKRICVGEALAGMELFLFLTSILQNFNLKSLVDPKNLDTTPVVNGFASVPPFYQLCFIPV

[10] = Aqueous solubility of compound; format: physicochemical; conditions: buffer
[11] = tested on: MDR1; assay: Efflux ratio of permeability across basolateral to apical over apical to basolateral side in RRCK cells expressing MDR1; format: ADME, cell-based, Canis lupus familiaris, MDCKII-LE; conditions: dog, MDCK-MDR1
[12] = target: CYP3A4 (Homo sapiens, UniProt P08684); assay: Inhibition of CYP3A4 (unknown origin) at 3 uM by high throughput assay relative to control; format: ADME
Sequence of CYP3A4 (P08684 whole entry): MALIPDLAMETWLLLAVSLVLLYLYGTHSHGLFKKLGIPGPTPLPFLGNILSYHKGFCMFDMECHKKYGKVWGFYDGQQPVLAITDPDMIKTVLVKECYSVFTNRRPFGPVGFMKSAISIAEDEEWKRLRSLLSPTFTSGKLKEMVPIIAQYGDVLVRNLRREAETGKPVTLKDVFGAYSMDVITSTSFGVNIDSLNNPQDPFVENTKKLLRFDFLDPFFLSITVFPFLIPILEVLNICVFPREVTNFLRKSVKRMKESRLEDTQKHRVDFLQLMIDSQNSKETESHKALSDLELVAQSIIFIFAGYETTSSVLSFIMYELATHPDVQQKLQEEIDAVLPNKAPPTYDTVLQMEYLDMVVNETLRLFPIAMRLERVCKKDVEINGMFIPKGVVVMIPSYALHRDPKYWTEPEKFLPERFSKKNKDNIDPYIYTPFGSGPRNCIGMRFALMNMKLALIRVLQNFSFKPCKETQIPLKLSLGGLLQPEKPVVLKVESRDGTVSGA

[13] = Clearance in rat; format: ADME, organism-based; conditions: in vivo
[14] = Volume of distribution in rat; format: ADME, organism-based; conditions: in vivo
[15] = Oral bioavailability in rat; format: ADME, organism-based; conditions: in vivo
[16] = target: Voltage-gated inwardly rectifying potassium channel KCNH2 (Homo sapiens, UniProt Q12809); assay: Inhibition of human ERG
[17] = Elimination half life in rat; format: ADME, organism-based; conditions: in vivo, read-out: beta t1/2 (converted)
[18] = Fraction unbound in rat plasma; format: ADME, cell-free
[19] = Clearance in rat liver microsomes; format: ADME, microsome; conditions: read-out: CLH
[20] = Clearance in dog liver microsomes; format: ADME, Canis lupus familiaris, microsome; conditions: read-out: CLH
[21] = Clearance in cynomolgus monkey liver microsomes; format: ADME, Macaca fascicularis, microsome; conditions: read-out: CLH
[22] = target: Sodium channel protein type 3 subunit alpha (Rattus norvegicus, UniProt P08104); assay: Inhibition of rat NaV1.3 by electrophysiological method
[23] = target: Sodium channel protein type 4 subunit alpha (Homo sapiens, UniProt P35499); assay: Inhibition of human NaV1.4
[24] = target: Sodium channel protein type 5 subunit alpha (Homo sapiens, UniProt Q14524); assay: Inhibition of human NaV1.5
[25] = target: Sodium channel protein type 8 subunit alpha (Homo sapiens, UniProt Q9UQD0); assay: Inhibition of human NaV1.6
[26] = target: Sodium channel protein type 9 subunit alpha (Rattus norvegicus, UniProt O08562); assay: Inhibition of rat NaV1.7

Sequence of Sodium channel protein type 3 subunit alpha (Homo sapiens, UniProt Q9NY46) (Q9NY46 whole entry): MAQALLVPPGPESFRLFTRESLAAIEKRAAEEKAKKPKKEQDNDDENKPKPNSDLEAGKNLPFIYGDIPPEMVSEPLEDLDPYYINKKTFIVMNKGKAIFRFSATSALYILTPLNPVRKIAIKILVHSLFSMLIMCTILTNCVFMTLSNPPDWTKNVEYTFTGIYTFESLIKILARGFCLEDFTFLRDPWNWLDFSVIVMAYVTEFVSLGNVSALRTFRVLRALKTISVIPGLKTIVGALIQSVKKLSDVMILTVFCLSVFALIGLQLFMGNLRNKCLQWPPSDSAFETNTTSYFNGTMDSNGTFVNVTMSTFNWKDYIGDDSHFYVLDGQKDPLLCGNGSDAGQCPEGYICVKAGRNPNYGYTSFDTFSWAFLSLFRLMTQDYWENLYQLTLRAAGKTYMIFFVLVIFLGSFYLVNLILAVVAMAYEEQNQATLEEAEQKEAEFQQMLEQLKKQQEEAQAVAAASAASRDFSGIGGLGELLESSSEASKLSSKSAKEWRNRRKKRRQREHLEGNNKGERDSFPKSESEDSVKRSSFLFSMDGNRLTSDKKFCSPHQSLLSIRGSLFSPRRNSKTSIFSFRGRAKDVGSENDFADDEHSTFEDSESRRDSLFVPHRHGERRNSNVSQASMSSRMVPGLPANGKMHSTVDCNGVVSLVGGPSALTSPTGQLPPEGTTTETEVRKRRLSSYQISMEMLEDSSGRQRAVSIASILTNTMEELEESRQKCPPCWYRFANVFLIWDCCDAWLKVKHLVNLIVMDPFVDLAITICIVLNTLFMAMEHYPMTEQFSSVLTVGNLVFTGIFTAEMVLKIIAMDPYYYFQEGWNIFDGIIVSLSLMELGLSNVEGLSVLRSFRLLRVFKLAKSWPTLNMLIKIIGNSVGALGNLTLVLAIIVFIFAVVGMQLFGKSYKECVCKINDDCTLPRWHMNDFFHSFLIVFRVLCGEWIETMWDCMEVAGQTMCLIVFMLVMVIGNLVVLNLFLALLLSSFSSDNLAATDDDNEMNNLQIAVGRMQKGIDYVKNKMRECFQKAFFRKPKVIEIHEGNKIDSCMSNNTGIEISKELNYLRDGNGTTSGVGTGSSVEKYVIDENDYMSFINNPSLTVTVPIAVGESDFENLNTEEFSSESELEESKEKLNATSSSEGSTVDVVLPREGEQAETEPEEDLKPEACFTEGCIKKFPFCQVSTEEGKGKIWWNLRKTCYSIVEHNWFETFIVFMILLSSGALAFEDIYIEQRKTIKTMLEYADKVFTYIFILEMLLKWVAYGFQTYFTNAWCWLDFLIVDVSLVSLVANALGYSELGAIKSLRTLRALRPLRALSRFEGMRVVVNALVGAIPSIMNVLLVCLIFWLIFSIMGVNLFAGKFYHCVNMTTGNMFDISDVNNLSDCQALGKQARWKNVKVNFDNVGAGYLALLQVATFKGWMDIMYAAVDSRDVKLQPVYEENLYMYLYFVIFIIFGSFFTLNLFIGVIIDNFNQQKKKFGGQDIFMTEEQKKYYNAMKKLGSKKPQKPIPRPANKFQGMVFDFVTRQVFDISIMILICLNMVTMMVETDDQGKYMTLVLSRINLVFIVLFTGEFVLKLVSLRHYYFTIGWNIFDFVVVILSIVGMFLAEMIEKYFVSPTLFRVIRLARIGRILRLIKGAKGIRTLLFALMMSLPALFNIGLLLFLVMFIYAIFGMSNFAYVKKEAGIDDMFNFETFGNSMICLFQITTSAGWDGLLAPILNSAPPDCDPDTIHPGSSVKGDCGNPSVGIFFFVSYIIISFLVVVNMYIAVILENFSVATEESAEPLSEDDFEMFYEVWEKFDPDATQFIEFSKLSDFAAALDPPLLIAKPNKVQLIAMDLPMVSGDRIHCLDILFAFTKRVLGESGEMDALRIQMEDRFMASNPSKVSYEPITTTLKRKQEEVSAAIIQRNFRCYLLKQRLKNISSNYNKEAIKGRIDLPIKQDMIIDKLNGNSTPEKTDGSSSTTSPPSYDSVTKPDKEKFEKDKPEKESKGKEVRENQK

Structure (SMILES): O=C(c1ccc(S(=O)(=O)Nc2ncns2)c(F)c1)N1CCC(c2noc(-c3ccccc3C(F)(F)F)n2)CC1
IC50 [1]: 1.95 µM

Structure (SMILES): O=S(=O)(Nc1nccs1)c1ccc(S(=O)(=O)N2CC[C@H](Oc3ccc(C(F)(F)F)cn3)C2)cc1F
IC50 [1]: 0.851 µM

Structure (SMILES): O=S(=O)(Nc1nccs1)c1ccc(S(=O)(=O)N2CC(Oc3ccccc3)C2)cc1F
IC50 [1]: 0.959 µM | logD [2]: 1.4

Structure (SMILES): O=S(=O)(Nc1nccs1)c1ccc(S(=O)(=O)N2CCCCC2c2cc(-c3ccccc3)[nH]n2)cc1F (stereo not given)
IC50 [1]: 1.83 µM

Structure (SMILES): O=C(c1ccc(S(=O)(=O)Nc2ncns2)c(F)c1)N1CCC(c2ccnc(C(F)(F)F)n2)CC1
IC50 [1]: 6.68 µM

Structure (SMILES): O=C(COc1ccc(F)cc1)N1CCc2cc(S(=O)(=O)Nc3ncns3)ccc21
IC50 [1]: 1.27 µM | logD [2]: 0.4

Structure (SMILES): O=C(NCc1ccc(OC(F)(F)F)cc1)c1ccc(S(=O)(=O)Nc2nccs2)cc1
IC50 [1]: 0.197 µM | logD [2]: 2.6

Structure (SMILES): O=S(=O)(Nc1nccs1)c1ccc(-c2nnc(Cc3ccc(Cl)c(Cl)c3)[nH]2)cc1
IC50 [1]: 0.045 µM

Continued, in another order:

IC50 [1]: 0.147 µM | logD [2]: 2.5
Structure (SMILES): O=C(NCc1ccc(C(F)(F)F)cc1)c1ccc(S(=O)(=O)Nc2nccs2)cc1

IC50 [1]: > 3 µM | logD [2]: 2 | pKa [3]: 4.6
Structure (SMILES): O=C(NCc1ccc(OC(F)(F)F)c(Cl)c1)c1ccc(S(=O)(=O)Nc2cncnc2)c(F)c1

IC50 [1]: 0.022 µM | IC50 [4]: 0.455 µM | IC50 [5]: 2.76 µM | IC50 [6]: 5.1 µM | IC50 [7]: 15.1 µM | microsomal CLint [8]: 15 µL/min/mg | inhibition at 3 µM [9]: 85% | solubility [10]: 99 µM | efflux ratio [11]: 1 | logD [2]: 2.65 | inhibition at 3 µM [12]: 75% | pKa [3]: 4.1 | clearance [13]: 2 mL/min/kg | Vd [14]: 1 L/kg | bioavailability [15]: 73% | half-life [17]: 7 h | fraction unbound [18]: 0.00024 | microsomal CLint [19]: < 14 µL/min/mg | microsomal CLint [20]: < 18 µL/min/mg | microsomal CLint [21]: < 32 µL/min/mg
Structure (SMILES): O=S(=O)(Nc1ncns1)c1ccc(OCc2ccc(OC(F)(F)F)c(Cl)c2)cc1
IC50 [16]: > 10 µM

IC50 [1]: 0.017 µM | IC50 [22]: 0.006 µM | IC50 [4]: 0.032 µM | IC50 [5]: 0.393 µM | IC50 [23]: 10 µM | IC50 [25]: 10.3 µM | IC50 [6]: 5.2 µM | IC50 [26]: 0.068 µM | IC50 [7]: 3 µM | microsomal CLint [8]: 15 µL/min/mg | inhibition at 3 µM [9]: 79% | solubility [10]: 268 µg/mL | efflux ratio [11]: 30 | logD [2]: 3.3
Structure (SMILES): O=C(Nc1ccc(S(=O)(=O)Nc2nccs2)cc1)C(c1ccccc1)c1ccccc1
IC50 [24]: 9.2 µM

IC50 [1]: 0.296 µM | logD [2]: 2.5
Structure (SMILES): O=S(=O)(Nc1ncns1)c1ccc(Oc2ccc(OC(F)(F)F)c(Cl)c2)cc1

IC50 [1]: 0.374 µM | logD [2]: 1.8
Structure (SMILES): O=C(NCc1ccc(OC(F)(F)F)c(Cl)c1)c1ccc(S(=O)(=O)Nc2ncccn2)c(F)c1

IC50 [1]: 0.237 µM | logD [2]: 1.3
Structure (SMILES): O=C(c1ccc(OC(F)(F)F)c(Cl)c1)N1CC(OCc2ccc(S(=O)(=O)Nc3ncns3)cc2)C1

IC50 [1]: 1.79 µM | logD [2]: 2.4
Structure (SMILES): O=C(NCc1ccc(OC(F)(F)F)c(Cl)c1)c1ccc(S(=O)(=O)Nc2cccnn2)c(F)c1
